# Test results published in patent publication US20030216413A1, “Catecholamine pharmaceutical compositions and methods” (priority 2000, published 2003).
# Where a name gives a salt, the structure may show the parent alone.
# Legend:
# [1] = daily injections of 1 mg/kg for seven days; cited from earlier work
# [2] = Treatment of a patient with asthma (Examples 1-3)
# Description: A patient presents with asthma complicated by degenerative heart disease and has variously used 0.25% or 1% isoproterenol aerosols, 0.10-0.20 mg epinephrine-bitartrate inhalers, and 90 μg albuterol every day at 4-6 hour intervals. […] The subject is administered an aerosol composition comprising 0.075% isoproterenol and 1.0% ascorbic acid.
# A patient presents with asthma and has previously used 90 μg albuterol every day at 4-6 hour intervals. […] The subject is administered composition comprising 50 μg albuterol and […] morphine sulfate.
# A patient presents with asthma and has previously used a 0.20 mg/dose epinephrine bitartrate inhaler every day at 6 hour intervals. The subject is administered a composition delivering a unit dose comprising 0.03 mg epinephrine bitatrate and 0.2 mg EDTA from a conventional inhaler.
# [3] = 1:100,000 sterile aqueous solution; cited from earlier work
# [4] = 1:1000 or 1:10,000 epinephrine in sterile aqueous solution; cited from earlier work
# [5] = 1:1000 to 1:10,000 solutions; cited from earlier work
compound,measurement,setting,value
C[C@H](N)Cc1ccccc1 [D-amphetamine],side effects of the typical treatment,[1],Side effects often result
CC(C)(C)NCC(O)c1ccc(O)c(CO)c1 (centres unmarked) [albuterol],adverse side effects,"[2]; human, in vivo",unacceptable side effects
same,control of asthma / symptom relief,[2]; patient with asthma,not well controlled
CNC[C@H](O)c1ccc(O)c(O)c1 [epinephrine hydrochloride],duration of beneficial effect of conventional treatment,[3],about 15 minutes
CNC[C@H](O)c1ccc(O)c(O)c1 [epinephrine-bitartrate],adverse side effects,"[2]; human, in vivo",unacceptable side effects
CNC[C@H](O)c1ccc(O)c(O)c1 [epinephrine],side effects of conventional formulations,[4],"fear, anxiety, restlessness, and sleeplessness, dizziness and palpitations"
same,duration of action of conventional treatment,[5],only a few minutes
CC(C)NCC(O)c1ccc(O)c(O)c1 (centres unmarked) [isoproterenol],adverse side effects,[2]; patient with asthma,unacceptable side effects
